Experimental data as given in patent US4665092A, “Styrene derivatives, their use as antiallergic agents and intemediate epoxides for their synthesis” (Ortho Pharmaceutical Corporation, priority 1985, dated 1987).

Assay: Anti-allergic / anti-inflammatory activity of the invention compounds; the test is not specified (5-lipoxygenase inhibition in RBL-1 cells and active lung anaphylaxis in guinea-pigs are described)
Conditions: no IC50 or percent inhibition printed
Description: The compounds of the invention of formulae (I) and (II) may be used as pharmaceutical agents in the treatment of inflammation and/or allergic reactions. […] Such testing procedures were carried out on compounds of the invention as described below:
Rat basophilic leukemia cells (RBL-1) were grown in Eagle's Minimal Essential Medium containing 10% fetal calf serum, 5% calf serum, 1% glutamine and 50 mg/L gentamycin and were maintained at 37° C. in a atmosphere containing 5% CO2. Exponentially growing cells were harvested by centrifugation at 400xg for 10 minutes at 4° C. and were washed once with Dulbecco's phosphate buffered saline containing 0.87 mM CaCl2. The cells were resuspended in the same buffer at a concentration of 1.85×10^7 cells/ml. […]
In order to isolate the Δ5 -lipoxygenase product ^14 C-5-HETE that was formed from arachidonic acid, each assay tube was extracted once with 6 volumes of anhydrous diethyl ether. In most assays, the recovery of product was estimated by determining the total amount of radioactivity recovered after extraction. In the remaining assays the recovery of ^14 C-5-HETE was monitored by addition of trace quantities of ^3 H-5-HETE (New England Nuclear) prior to extraction. […] The amount of ^14 C-5-HETE presented was quantitated by liquid scintillation counting in Aquasol II (New England Nuclear) and corrected for recovery. […]

| Compound | activity of the compound (statement in words, figures not given) |
| --- | --- |
| O[C@@H](CCCCOC1CCCCO1)[C@@H](/C=C/c1ccccc1)Sc1ccccc1 (stereo partly drawn) [Example 1g, (3R,4S)-4-Hydroxy-1-phenyl-3-phenylthio-8-(2-tetrahydropyranyloxy)-1(E)-octene] | Particularly active |
| CC(C)=CCC[C@](C)(O)[C@@H](/C=C\C=C\c1ccccc1)Sc1ccccc1 [Example 7, (5R,6S) 1-Phenyl-5-phenylthio-6-hydroxy-6,10-dimethylundeca-(1E,3Z,9)-triene Monoh ydrate] | Particularly active |
